# Experimental data taken from patent publication US8652785B2, “Method of screening a modulator of endothelial NO synthase comprising the use of heme binding protein 1” (Sanofi, priority 2008, dated 2014).
# Where two headings read alike, the source gives them in different places.
# Experiments:
# human Hexahis-HEBP1 = biological target: T1, human Hexahis-HEBP1 (Homo sapiens, UniProt Q9NRV9); assay: Binding studies by quenching of tryptophan fluorescence
# T1 construct: Hexahis (6xHis) (N); made in house; host or cells: E. coli BL21 Star (DE3)
# T1 sequence (Q9NRV9 1-189): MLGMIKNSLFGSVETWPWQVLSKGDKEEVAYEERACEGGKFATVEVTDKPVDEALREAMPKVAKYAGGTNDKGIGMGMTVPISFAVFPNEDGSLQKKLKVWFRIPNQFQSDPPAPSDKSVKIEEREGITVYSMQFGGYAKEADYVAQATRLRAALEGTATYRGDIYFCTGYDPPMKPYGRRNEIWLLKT
# Description: For carrying out binding studies with human HEBP1, it is possible to utilize the intrinsic fluorescence of the tryptophan residues at λ=340 nm, using an excitation wavelength of λ=295 nm. The resultant fluorescence can be “quenched” by binding of porphyrins in spatial proximity to the tryptophan residues. This leads to a decrease of intrinsic fluorescence, which therefore provides a measure for the binding of a ligand. In order to optimize the experimental conditions for these quench measurements it was first necessary to evaluate the spectroscopic properties of the recombinant Hexahis-HEBP1.
# Next, studies of the binding of hemin and protoporphyrin IX (PPIX) to human Hexahis-HEBP1 in the presence of eNOS transcription enhancers by tryptophan quenching were carried out. Binding studies with human HEBP1 are carried out using the intrinsic fluorescence of tryptophan residues that are contained. The fluorescence occurring at λ=340 nm after excitation with a wavelength of λ=295 nm can be “quenched” through the binding of porphyrins in proximity to the tryptophan residues. The measured fluorescence decreases as a function of the concentration of the ligands. Using nonlinear regression, it is possible to calculate the binding parameters.
# Hemin and PPIX at concentrations from 30 nM to 10 μM were added to a buffered HEBP1 solution (500 nM) and after incubation for 10 min the tryptophan fluorescence was measured (FIG. 3). It was not possible to use higher porphyrin concentrations owing to the low solubility in aqueous systems.
# The influence of the eNOS-transcription enhancers on tryptophan quenching by hemin was investigated next. In the experiments the recombinant human HEBP1 at a concentration of 500 nM was preincubated on ice for 30 min with the eNOS-substance 9257 versus DMSO-control in a binding buffer (pH 7.4) of HEPES (20 mM), sodium chloride (100 mM) and DTT (1 mM). Black, 96-well plates were used as the reaction vessel. Then hemin or protoporphyrin IX was added at varying concentrations through addition of the 200-fold concentrated DMSO stock solution and incubated for 10 min at room temperature. Finally, the tryptophan fluorescence was measured after previous optimization at λexc=295 nm and λem=340 nm in the Safire^2 microplate reader (Tecan Deutschland, Crailsheim, Germany).
# First we investigated whether substance 9257 can quench the tryptophan fluorescence of HEBP1. […] Therefore the binding of 9257 was investigated indirectly through competition with hemin. For this, HEBP1 (500 nM) was preincubated with 9257 (10 μM) on ice, versus DMSO-control. After 30 min the hemin was added at varying concentrations of 0.1-10 μM and it was incubated at room temperature for a further 10 min before measuring the tryptophan fluorescence (FIG. 4).
# eNOS promoter = assay: eNOS-transcription test (eNOS-promoter luciferase reporter cell line EA.csr03); assay type: cell-based; conditions: Homo sapiens; EA.csr03 cells; read-out: Cellular EC50 in the eNOS-transcription test
# Method: The EA.csr03 cells are cells of a stable eNOS-promoter luciferase cell line. It was obtained by transfection of EA.hy926 cells with a firefly luciferase reporter construct, with a 3.5 kb fragment of the eNOS-promoter added. Cultivation of these cells was carried out with IMDM with GlutaMAX™ I supplemented with 100 U/ml penicillin, 100 μg/ml streptomycin, 10% FCS and 0.4 mg/ml geneticin as selection antibiotic. The EA.hy926 cells are a stable human cell line, which was obtained by fusion of HUVEC with the human […] cell line A549. This cell line is characterized by expression of specific endothelial cell markers, e.g. the “van-Willebrand factor”. The cells used are an original culture of Cora Jean Edgell of passage 32. The cells were cultivated in IMDM with GlutaMAX™ I supplemented with 100 U/ml penicillin, 100 μg/ml streptomycin, HAT Hybri-Max™ medium additive (hypoxanthine, aminopterin and thymidine) and Biotect protective medium.
# For transcription test for eNOS promoter activation, 20 000 cells per well of the reporter cell line EA.csr03 were sown in a white 96-well cell culture plate. After 24 hours, various dilutions of the substance in cell culture medium were prepared starting from DMSO stock solutions and were preincubated for 10 min at 37° C. on a water bath. Then these incubation media (100 μl/well) were added to the cells. After incubation for 18 hours, the cells were washed twice with DPBS (100 μl/well) and luciferase lysis buffer (50 μl/well) was added. After 10 min, the solubilized luciferase-substrate luciferin (100 μl/well) was added to the cell lysates. During the luciferase-catalyzed oxidation of luciferin to oxyluciferin there is release of chemiluminescence. […] The light units released were measured in the Genios microplate reader from Tecan Deutschland (Crailsheim, Germany).
# [1] = test system: recombinant human proteins on ProtoArrays v3.0; assay: Protein microarray (ProtoArray) labeling and competition, qualitative; assay type: binding; conditions: substance 100 μM
# Method: (§1) The protein-microarray experiments were carried out using ProtoArrays® v3.0 (Invitrogen, Karlsruhe, Germany). These were nitrocellulose-coated glass plates, on which approx. 5000 recombinant human proteins, in duplicates, were immobilized.
# (§2) In the first step the microarrays were incubated for one hour at 4° C. with a MOPS blocking buffer with 0.1% (v/v) Igepal and 1% (w/v) BSA. Then the arrays with the biotin-labeled eNOS transcription enhancers A012 and A013, sometimes in the presence of the unlabeled substance 9257, were incubated at 4° C. for 90 min without shaking, in various test conditions in a MOPS sample buffer with 1% (v/v) Igepal and 1% (w/v) BSA.
# (§3) After washing three times, in each case for 1 min, with pure MOPS sample buffer on ice, they were incubated for 30 min with IRDye®680-labeled streptavidin diluted 1/1000 in MOPS sample buffer away from the light, also on ice. IRDye®680- and IRDye®800-labeled secondary antibodies, which recognize the constant Fc-part of the primary antibodies, were used exclusively for the immunodetection of certain proteins. […] The advantage of this wavelength range is the very good signal-to-noise ratio on account of low intrinsic fluorescence. Detection employs the ODYSSEY™ from LI-COR Biosciences (Bad Homburg, Germany). With this instrument it is possible to detect both emission wavelengths on one membrane simultaneously. […]
# [2] = biological target: T2, Mitogen-activated protein kinase 7 (MAPK7) (Homo sapiens, UniProt Q13164); assay: Protein microarray (ProtoArray) binding, MAPK7
# T2 construct: purchased Invitrogen, Karlsruhe, Germany ProtoArrays v3.0
# Method: as §1, §2
# as §3, with “Germany).” for “Germany). With this instrument it is possible to detect both emission wavelengths on one membrane simultaneously.”
# (§4) These labeling (A) and competition tests (B) were evaluated by quantifying the fluorescence signals.
# [3] = biological target: T3, AMP-activated protein kinase, catalytic subunit alpha 1 (PRKAA1) (Homo sapiens, UniProt Q13131); assay: Protein microarray (ProtoArray) binding, PRKAA1
# T3 construct: purchased Invitrogen, Karlsruhe, Germany ProtoArrays v3.0
# Method: as §1, §2
# as §3, with “Germany).” for “Germany). With this instrument it is possible to detect both emission wavelengths on one membrane simultaneously.”
# as §4
# [4] = biological target: T4, TBP-related Protein 1 (TBPL1) (Homo sapiens, UniProt P62380); assay: Protein microarray (ProtoArray) binding, TBPL1
# T4 construct: purchased Invitrogen, Karlsruhe, Germany ProtoArrays v3.0
# T4 sequence (P62380 1-186): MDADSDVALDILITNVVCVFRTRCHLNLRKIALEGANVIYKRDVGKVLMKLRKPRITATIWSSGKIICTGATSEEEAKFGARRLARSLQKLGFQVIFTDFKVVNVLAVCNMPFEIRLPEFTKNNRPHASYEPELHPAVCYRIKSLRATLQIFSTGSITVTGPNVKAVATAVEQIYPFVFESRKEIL
# Method: as §1, §2
# as §3, with “Germany).” for “Germany). With this instrument it is possible to detect both emission wavelengths on one membrane simultaneously.”
# as §4
# [5] = biological target: T5, Phosphoserine aminotransferase 1 (PSAT1) (Homo sapiens, UniProt Q9Y617); assay: Protein microarray (ProtoArray) binding, PSAT1
# T5 construct: purchased Invitrogen, Karlsruhe, Germany ProtoArrays v3.0
# T5 sequence (Q9Y617 1-370): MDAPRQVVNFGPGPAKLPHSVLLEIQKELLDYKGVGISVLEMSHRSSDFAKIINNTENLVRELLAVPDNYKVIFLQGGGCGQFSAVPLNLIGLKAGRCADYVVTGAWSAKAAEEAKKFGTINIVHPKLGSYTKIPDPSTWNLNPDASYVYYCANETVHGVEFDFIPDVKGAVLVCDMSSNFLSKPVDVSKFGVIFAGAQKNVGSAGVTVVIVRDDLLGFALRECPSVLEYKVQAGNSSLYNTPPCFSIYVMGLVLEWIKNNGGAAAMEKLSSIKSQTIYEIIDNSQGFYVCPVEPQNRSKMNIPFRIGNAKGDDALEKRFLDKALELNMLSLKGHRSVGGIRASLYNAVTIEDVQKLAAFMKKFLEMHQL
# Method: as §1, §2
# as §3, with “Germany).” for “Germany). With this instrument it is possible to detect both emission wavelengths on one membrane simultaneously.”
# as §4
# [6] = biological target: T6, Cytidinemonophosphate-N-acetylneuraminic acid-synthetase (CMAS) (Homo sapiens, UniProt Q8NFW8); assay: Protein microarray (ProtoArray) binding, CMAS
# T6 construct: purchased Invitrogen, Karlsruhe, Germany ProtoArrays v3.0
# Method: as §1, §2
# as §3, with “Germany).” for “Germany). With this instrument it is possible to detect both emission wavelengths on one membrane simultaneously.”
# as §4
# [7] = biological target: T7, Transcription factor EB (TFEB) (Homo sapiens, UniProt P19484); assay: Protein microarray (ProtoArray) binding, TFEB
# T7 construct: purchased Invitrogen, Karlsruhe, Germany ProtoArrays v3.0
# T7 sequence (P19484 1-476): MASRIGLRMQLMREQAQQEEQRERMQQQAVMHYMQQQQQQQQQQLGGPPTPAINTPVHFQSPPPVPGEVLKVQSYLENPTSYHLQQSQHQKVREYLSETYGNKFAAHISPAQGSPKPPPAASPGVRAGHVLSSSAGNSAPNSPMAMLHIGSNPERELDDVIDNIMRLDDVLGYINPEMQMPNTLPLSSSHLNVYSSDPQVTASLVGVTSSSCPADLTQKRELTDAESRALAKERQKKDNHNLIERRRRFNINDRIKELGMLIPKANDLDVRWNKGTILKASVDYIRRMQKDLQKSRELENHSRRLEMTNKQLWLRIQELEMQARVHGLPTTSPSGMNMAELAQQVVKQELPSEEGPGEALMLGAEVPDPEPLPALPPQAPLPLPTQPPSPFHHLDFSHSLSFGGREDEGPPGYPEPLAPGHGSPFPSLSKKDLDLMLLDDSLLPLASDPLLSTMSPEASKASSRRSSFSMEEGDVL
# Method: as §1, §2
# as §3, with “Germany).” for “Germany). With this instrument it is possible to detect both emission wavelengths on one membrane simultaneously.”
# as §4
# [8] = 0.5 μM HEBP1, ligand 30 nM to 10 μM, 10 min, read-out: IC50 of tryptophan fluorescence quenching
# [9] = B: A012 (100 μM) in the presence of unlabeled substance 9257 (25 μM)
# T2 sequence (Q13164 whole entry): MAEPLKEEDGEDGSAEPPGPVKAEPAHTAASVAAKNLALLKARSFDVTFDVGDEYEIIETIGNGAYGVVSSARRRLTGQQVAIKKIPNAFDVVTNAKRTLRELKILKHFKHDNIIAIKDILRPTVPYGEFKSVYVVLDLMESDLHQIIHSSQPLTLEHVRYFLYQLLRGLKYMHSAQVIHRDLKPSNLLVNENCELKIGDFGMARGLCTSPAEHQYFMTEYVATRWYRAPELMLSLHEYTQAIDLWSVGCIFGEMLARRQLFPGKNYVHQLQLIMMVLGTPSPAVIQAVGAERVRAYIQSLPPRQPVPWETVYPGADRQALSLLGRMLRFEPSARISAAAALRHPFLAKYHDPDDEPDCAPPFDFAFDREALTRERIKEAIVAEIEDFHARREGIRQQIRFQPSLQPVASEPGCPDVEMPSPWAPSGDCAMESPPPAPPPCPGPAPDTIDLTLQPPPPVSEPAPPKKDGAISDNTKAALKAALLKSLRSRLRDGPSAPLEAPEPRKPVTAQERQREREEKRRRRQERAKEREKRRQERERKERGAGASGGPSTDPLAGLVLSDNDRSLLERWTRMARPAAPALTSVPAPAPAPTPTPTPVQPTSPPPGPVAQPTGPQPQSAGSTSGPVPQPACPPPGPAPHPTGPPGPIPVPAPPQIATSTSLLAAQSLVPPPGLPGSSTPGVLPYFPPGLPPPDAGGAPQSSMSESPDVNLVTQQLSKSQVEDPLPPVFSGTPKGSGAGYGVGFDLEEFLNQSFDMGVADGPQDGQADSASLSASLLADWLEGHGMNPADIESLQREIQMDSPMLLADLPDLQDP
# T6 sequence (Q8NFW8 whole entry): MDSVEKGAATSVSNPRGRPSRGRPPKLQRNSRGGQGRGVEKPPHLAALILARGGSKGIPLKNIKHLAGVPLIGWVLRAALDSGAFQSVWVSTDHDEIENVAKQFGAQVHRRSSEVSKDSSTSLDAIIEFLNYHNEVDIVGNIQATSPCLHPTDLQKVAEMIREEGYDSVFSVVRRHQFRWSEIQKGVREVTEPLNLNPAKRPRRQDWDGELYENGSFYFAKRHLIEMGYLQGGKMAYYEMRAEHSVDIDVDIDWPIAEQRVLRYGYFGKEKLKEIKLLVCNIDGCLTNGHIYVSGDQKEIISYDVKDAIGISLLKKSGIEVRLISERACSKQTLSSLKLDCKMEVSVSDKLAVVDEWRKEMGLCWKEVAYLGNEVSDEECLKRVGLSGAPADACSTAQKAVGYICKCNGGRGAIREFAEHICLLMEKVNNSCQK
# T3 sequence (Q13131 whole entry): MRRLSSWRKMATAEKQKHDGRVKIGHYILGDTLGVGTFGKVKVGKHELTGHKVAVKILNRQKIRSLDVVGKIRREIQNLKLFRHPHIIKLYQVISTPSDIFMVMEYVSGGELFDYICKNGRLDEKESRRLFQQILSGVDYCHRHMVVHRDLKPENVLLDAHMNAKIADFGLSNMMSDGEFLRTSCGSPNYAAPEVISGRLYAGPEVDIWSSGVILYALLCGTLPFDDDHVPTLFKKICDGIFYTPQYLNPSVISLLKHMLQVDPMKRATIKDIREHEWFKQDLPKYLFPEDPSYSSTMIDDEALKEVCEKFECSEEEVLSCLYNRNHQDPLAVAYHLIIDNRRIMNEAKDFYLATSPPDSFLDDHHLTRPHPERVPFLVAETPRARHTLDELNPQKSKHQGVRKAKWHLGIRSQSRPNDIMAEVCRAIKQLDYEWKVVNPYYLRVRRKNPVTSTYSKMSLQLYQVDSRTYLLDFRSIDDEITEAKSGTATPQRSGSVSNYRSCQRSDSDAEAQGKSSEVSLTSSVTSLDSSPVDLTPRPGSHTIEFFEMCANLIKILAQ
compound,measurement,setting,value
"C=CC1=C(C)c2cc3[nH]c(cc4nc(cc5[nH]c(cc1n2)c(C)c5CCC(=O)O)C(CCC(=O)O)=C4C)c(C)c3C=C [PPIX, protoporphyrin IX]",IC50,human Hexahis-HEBP1; [8],13 µM
hemin,IC50,human Hexahis-HEBP1; [8],3 µM
same,IC50,"human Hexahis-HEBP1; HEBP1 500 nM, DMSO-control, hemin 0.1-10 μM, read-out: IC50 of the hemin binding curve, DMSO-control",1.1 µM
same,potency of hemin relative to PPIX,human Hexahis-HEBP1; from IC50 values,10 times
O=C(CCCC[C@@H]1SC[C@@H]2NC(=O)N[C@@H]21)NCCCCCC(=O)NCCOCCOc1ccc(C(=O)N[C@@H]2CCCc3ccccc3C2)cc1 [A013],EC50,eNOS promoter,> 10 µM
same,labeling of protein duplicates on the microarray,[1],no binding of the substance to the proteins
O=C(NC1Cc2ccccc2C1)c1ccc(F)cc1 [AVE9488],EC50,eNOS promoter,3 µM
O=C(CCCC[C@@H]1SC[C@@H]2NC(=O)N[C@@H]21)NCCCCCC(=O)NCCOCCOc1ccc(C(=O)N[C@H]2CCCc3ccccc3C2)cc1 [A012],Fluorescence intensity A,[2]; A: A012 (100 μM),4775
same,Fluorescence intensity B,[2]; [9],1135
same,Fluorescence intensity A,[3]; A: A012 (100 μM),3791
same,Fluorescence intensity B,[3]; [9],1206
same,Fluorescence intensity A,[4]; A: A012 (100 μM),10788
same,Fluorescence intensity B,[4]; [9],4083
same,Fluorescence intensity A,[5]; A: A012 (100 μM),3151
same,Fluorescence intensity B,[5]; [9],2269
same,Fluorescence intensity A,[6]; A: A012 (100 μM),10411
same,Fluorescence intensity B,[6]; [9],5028
same,EC50,eNOS promoter,1.2 µM
same,Fluorescence intensity A,[7]; A: A012 (100 μM),4987
same,Fluorescence intensity B,[7]; [9],1333
same,labeling of protein duplicates on the microarray,[1],readily discernible
